According to patent US20230255906A1, “Targeting Serpin B9 in Cancer” (The Brigham and Women`s Hospital, Inc., priority 2020, published 2023):
Further: test concentration or dose not given here.

What follows are compounds tested on B16 melanoma cells (assay: Caspase-3 activity assay (EnzChek Caspase-3 Assay Kit), caspase-3 induction in tumor cells). Conditions: not given.
Assay type: cell-based, mouse
Text: The EnzChek® Caspase-3 Assay Kit was used to detect apoptosis by assaying for increases in caspase-3 activities. The basis for the assay was rhodamine 110 bis-(N-CBZ-L-aspartyl-L-glutamyl-L-valyl-L-aspartic acid amide) (Z-DEVD-R110). This substrate is a bisamide derivative of rhodamine 110 (R110) containing DEVD peptides covalently linked to each of R110's amino groups, thereby suppressing the dye's visible absorption and its fluorescence. Upon enzymatic cleavage, the nonfluorescent bisamide substrate is converted in a two-step process first to a fluorescent monoamide and then to an even more fluorescent R110.
At least 1×10^6 cells of the lysate were used for each reaction. B16 cells were treated with compounds to induce apoptosis. A negative control was prepared by incubating cells in the absence of compounds. The cells were incubated with compounds for 24 hrs and washed in PBS. Each cell sample or control was resuspended in 50 μL of the 1×cell lysis buffer. Cells were lysed by incubating on ice for 30 minutes, and the lysed cells were centrifuged to pellet the cellular debris. 50 μL of the supernatant was transferred from each sample to individual microplate wells. 50 μL of the 1× cell lysis buffer was used as a no-enzyme control to determine the background fluorescence of the substrate. 50 μL of the 2×substrate working solution was added to each sample and control. The microplate was covered, and the samples were incubated at room temperature for approximately 30 minutes. The fluorescence was measured by a fluorescence microplate reader (excitation/emission ˜496/520 nm) using excitation and emission filters.
The ability of this small molecule inhibitor to inhibit intracellular Sb9 was then evaluated. As a marker for cell penetration, the induction of caspase-3 activity in B16 melanoma cells as a surrogate marker for increased GrB activity was measured.
The induction of caspase-3 activity in B16 melanoma cells as a surrogate marker for increased GrB activity was also measured for other small molecules (compounds of Formulas (V) and (VI) as described herein).
With `CC(C)NC(=O)c1ccc2oc(-c3ccc(C(F)(F)F)cc3)nc2c1` [N-isopropyl-2-[4-(trifluoromethyl)phenyl]-1,3-benzoxazole-5-carboxamide] the “Ratio of caspase-3 activity to Formula (III)” value (from here on “Ratio of caspase-3 activity”) was 0.2847.
In the case of `O=C(NCCCO)c1ccc2oc(-c3ccc(C(F)(F)F)cc3)nc2c1` [N-(3-hydroxypropyl)-2-[4-(trifluoromethyl)phenyl]-1,3-benzoxazole-5-carboxamide], the “Ratio of caspase-3 activity” value is reported as 1.003.
With `CC(NC(=O)c1ccc2oc(-c3cccc(F)c3)nc2c1)c1ncn[nH]1` (stereo not shown) [2-(3-fluorophenyl)-N-[1-(1H-1,2,4-triazol-5-yl)ethyl]-1,3-benzoxazole-5-carboxamide] the “Ratio of caspase-3 activity” value was 0.1158.
In the case of `CC(O)CNC(=O)c1ccc2oc(-c3ccc(C(F)(F)F)cc3)nc2c1` (stereo not shown) [N-(2-hydroxypropyl)-2-[4-(trifluoromethyl)phenyl]-1,3-benzoxazole-5-carboxamide], the “Ratio of caspase-3 activity” value is reported as 0.0922.
In the case of `CCn1ccnc1CN(C)C(=O)c1ccc2oc(-c3ccc(C(F)(F)F)cc3)nc2c1` [N-[(1-ethyl-1H-imidazol-2-yl)methyl]-N-methyl-2-[4-(trifluoromethyl)phenyl]-1,3-benzoxazole-5-carboxamide], the “Ratio of caspase-3 activity” value is reported as 0.1566.
In the case of `COCCOC1CCN(C(=O)c2ccc3oc(-c4cccc(F)c4)nc3c2)CC1` [2-(3-fluorophenyl)-5-{[4-(2-methoxyethoxy)-1-piperidinyl]carbonyl}-1,3-benzoxazole], the “Ratio of caspase-3 activity” value is reported as 0.1314.
`CN(Cc1ccncn1)C(=O)c1ccc2oc(-c3ccc(C(F)(F)F)cc3)nc2c1` [N-methyl-N-(4-pyrimidinylmethyl)-2-[4-(trifluoromethyl)phenyl]-1,3-benzoxazole-5-carboxamide] was tested, and the “Ratio of caspase-3 activity” value was 0.1443.
`COc1cccc(-c2nc3ccc(C(=O)NCc4cnc(C)cn4)cc3o2)c1` [2-(3-methoxyphenyl)-N-[(5-methylpyrazin-2-yl)methyl]-1,3-benzoxazole-6-carboxamide] was tested, and the “Ratio of caspase-3 activity” value was 0.1387.
`CCCc1cc(CN(C)C(=O)c2ccc3nc(-c4cccc(OC)c4)oc3c2)n[nH]1` [2-(3-methoxyphenyl)-N-methyl-N-[(5-propyl-1H-pyrazol-3-yl)methyl]-1,3-benzoxazole-6-carboxamide] was tested, and the “Ratio of caspase-3 activity” value was 0.1531.
For `O=C(c1ccc2nc(-c3ccccc3)oc2c1)N1CCC12CCOC2` (stereo not shown) [6-{6-oxa-1-azaspiro[3.4]octane-1-carbonyl}-2-phenyl-1,3-benzoxazole], the “Ratio of caspase-3 activity” value was 1.434.
`Cc1cc(CNC(=O)c2ccc3oc(-c4cccc(F)c4)nc3c2)nn1C` [N-[(1,5-dimethyl-1H-pyrazol-3-yl)methyl]-2-(3-fluorophenyl)-1,3-benzoxazole-5-carboxamide] was tested, and the “Ratio of caspase-3 activity” value was 0.123.
For `COc1cccc(-c2nc3ccc(C(=O)N4CCN(CCC(N)=O)CC4)cc3o2)c1` [3-(4-{[2-(3-methoxyphenyl)-1,3-benzoxazol-6-yl]carbonyl}-1-piperazinyl)propanamide], the “Ratio of caspase-3 activity” value was 1.077.
`O=C(c1ccc2oc(-c3ccc(C(F)(F)F)cc3)nc2c1)N1CC[C@H](O)C1` [(3S)-1-({2-[4-(trifluoromethyl)phenyl]-1,3-benzoxazol-5-yl}carbonyl)-3-pyrrolidinol] was tested, and the “Ratio of caspase-3 activity” value was 0.1382.
`CCn1cc(CNC(=O)c2ccc3oc(-c4cccc(F)c4)nc3c2)cn1` [N-[(1-ethyl-1H-pyrazol-4-yl)methyl]-2-(3-fluorophenyl)-1,3-benzoxazole-5-carboxamide] was tested, and the “Ratio of caspase-3 activity” value was 1.163.
`O=C(NCCc1ccco1)c1ccc2oc(-c3cccc(F)c3)nc2c1` [2-(3-fluorophenyl)-N-[2-(2-furyl)ethyl]-1,3-benzoxazole-5-carboxamide] was tested, and the “Ratio of caspase-3 activity” value was 0.09438.
With `CC1(C)CC(NC(=O)c2ccc3nc(-c4ccccc4)oc3c2)CO1` (stereo not shown) [N-(5,5-dimethyloxolan-3-yl)-2-phenyl-1,3-benzoxazole-6-carboxamide] the “Ratio of caspase-3 activity” value was 0.09307.

Same assay, conditions: relative to compound of Formula (III)
`COc1cc(Br)c(C(=O)NCCN(C)C)cc1OC` [2-bromo-N-[2-(dimethylamino)ethyl]-4,5-dimethoxybenzamide] was tested, and the “Caspase-3 induction, Normalized to Formula (III) (%)” value was −70.1327%.
`O=C(c1ccc2nc(C3CCCCC3)oc2c1)N1CCCC1` [2-cyclohexyl-6-(pyrrolidine-1-carbonyl)-1,3-benzoxazole] was tested, and the “Caspase-3 induction, Normalized to Formula (III) (%)” value was −29.7019%.
For `COCCCNC(=O)c1ccc2nc(C(F)(F)C(F)(F)F)oc2c1` [N-(3-methoxypropyl)-2-(1,1,2,2,2-pentafluoroethyl)-1,3-benzoxazole-6-carboxamide], the “Caspase-3 induction, Normalized to Formula (III) (%)” value was −23.2124%.
In the case of `Cc1nc2c(C(=O)NCc3ccccc3)cccc2o1` [N-benzyl-2-methyl-1,3-benzoxazole-4-carboxamide], the “Caspase-3 induction, Normalized to Formula (III) (%)” value is reported as −46.2057%.
In the case of `CN(C)c1nc2cccc(C(=O)N3CCCC3)c2o1` [N,N-dimethyl-7-(pyrrolidine-1-carbonyl)-1,3-benzoxazol-2-amine], the “Caspase-3 induction, Normalized to Formula (III) (%)” value is reported as −21.0312%.
In the case of `COCCCNC(=O)c1ccc2nc(S)oc2c1` [N-(3-methoxypropyl)-2-sulfanyl-1,3-benzoxazole-6-carboxamide], the “Caspase-3 induction, Normalized to Formula (III) (%)” value is reported as 15.2459%.
`O=C(NCc1ccccc1)c1cc2c(cc1O)OCO2` [N-benzyl-6-hydroxy-2H-1,3-benzodioxole-5-carboxamide] was tested, and the “Caspase-3 induction, Normalized to Formula (III) (%)” value was −9.366%.
For `COc1cc(C(=O)NCC2CCOCC2)ccc1OCCC(C)C` [3-methoxy-4-(3-methylbutoxy)-N-[(oxan-4-yl)methyl]benzamide], the “Caspase-3 induction, Normalized to Formula (III) (%)” value was −31.8318%.
For `O=C(c1ccc2nc(-c3cc(Cl)cc(Cl)c3)oc2c1)N1CCCC1` [2-(3,5-dichlorophenyl)-6-(pyrrolidine-1-carbonyl)-1,3-benzoxazole], the “Caspase-3 induction, Normalized to Formula (III) (%)” value was −6.23%.
`CC(C)CNC(=O)c1cc2c(cc1O)OCO2` [6-hydroxy-N-(2-methylpropyl)-2H-1,3-benzodioxole-5-carboxamide] was tested, and the “Caspase-3 induction, Normalized to Formula (III) (%)” value was −31.2294%.
With `O=C(c1ccc2nc(C3CC3)oc2c1)N1CCCC1` [2-cyclopropyl-6-(pyrrolidine-1-carbonyl)-1,3-benzoxazole] the “Caspase-3 induction, Normalized to Formula (III) (%)” value was −27.4144%.
`COCCCNC(=O)c1cc(OC)c(OC)cc1Br` [2-bromo-4,5-dimethoxy-N-(3-methoxypropyl)benzamide] was tested, and the “Caspase-3 induction, Normalized to Formula (III) (%)” value was −85.9622%.
In the case of `COc1cc(C(=O)NCC(C)C)cc(OC)c1O` [4-hydroxy-3,5-dimethoxy-N-(2-methylpropyl)benzamide], the “Caspase-3 induction, Normalized to Formula (III) (%)” value is reported as −25.2896%.
In the case of `CCN(C)C(=O)c1ccc2nc(-c3cc(Cl)cc(Cl)c3)oc2c1` [2-(3,5-dichlorophenyl)-N-ethyl-N-methyl-1,3-benzoxazole-6-carboxamide], the “Caspase-3 induction, Normalized to Formula (III) (%)” value is reported as −85.6535%.
In the case of `CCN(C)C(=O)c1cccc2nc(N(C)C)oc12` [2-(dimethylamino)-N-ethyl-N-methyl-1,3-benzoxazole-7-carboxamide], the “Caspase-3 induction, Normalized to Formula (III) (%)” value is reported as −30.9946%.
In the case of `O=C(NCc1ccccc1)c1ccc2nc(C(F)(F)C(F)(F)F)oc2c1` [N-benzyl-2-(1,1,2,2,2-pentafluoroethyl)-1,3-benzoxazole-6-carboxamide], the “Caspase-3 induction, Normalized to Formula (III) (%)” value is reported as −48.3904%.
With `COc1cc(Br)c(C(=O)NC2CCCC2)cc1OC` [2-bromo-N-cyclopentyl-4,5-dimethoxybenzamide] the “Caspase-3 induction, Normalized to Formula (III) (%)” value was −49.8913%.
In the case of `COc1cc(C(=O)NCC2(C)CC2)cc(OC)c1O` [4-hydroxy-3,5-dimethoxy-N-[(1-methylcyclopropyl)methyl]benzamide], the “Caspase-3 induction, Normalized to Formula (III) (%)” value is reported as −0.598%.
